These results are taken from patent US20020026053A1, “Novel 3-(substituted) -2- indolinones compounds and use thereof as inhibitors of protein kinase activity” (priority 1997, published 2002).

Where two headings read alike, the source gives them in different places.

For one experiment, the target named is T1, EGFR (Homo sapiens, UniProt P00533).
T1 construct: endogenous in cells; host or cells: A431 cells (lysate, captured with SUMO1 anti-EGFR antibody)
Put plainly: Biochemical EGFR Assay. Also noted: concentration or dose not given beside the values. The method in brief:
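EGFR from A431 lysate was captured on anti-EGFR-coated wells and preincubated 30 min with compound (diluted 1:10 in TBS) at room temperature. After ATP/MnCl2 phosphorylation for 5 min, the reaction was stopped with EDTA. Phosphotyrosine was detected by ELISA (anti-phosphotyrosine, peroxidase conjugate, ABTS) at 410 nm.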

The subject of the next experiment is PDGF-R. Put plainly: PDGF-R Assay (cellular ELISA, U1242 cells). The class given is cell-based. Details: concentration or dose not given beside the values. In outline: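 U1242 cells seeded in 0.5% serum, serum-starved, then exposed to compound for 2 hr at 37°C before 5–10 min ligand stimulation and lysis in HNTG. Lysate captured on receptor-antibody-coated plates; phosphotyrosine detected with polyclonal anti-pTyr, goat anti-rabbit IgG and ABTS/H2O2, A410 (ref 630 nm), versus untreated cells.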

T1 sequence (P00533 25-1210): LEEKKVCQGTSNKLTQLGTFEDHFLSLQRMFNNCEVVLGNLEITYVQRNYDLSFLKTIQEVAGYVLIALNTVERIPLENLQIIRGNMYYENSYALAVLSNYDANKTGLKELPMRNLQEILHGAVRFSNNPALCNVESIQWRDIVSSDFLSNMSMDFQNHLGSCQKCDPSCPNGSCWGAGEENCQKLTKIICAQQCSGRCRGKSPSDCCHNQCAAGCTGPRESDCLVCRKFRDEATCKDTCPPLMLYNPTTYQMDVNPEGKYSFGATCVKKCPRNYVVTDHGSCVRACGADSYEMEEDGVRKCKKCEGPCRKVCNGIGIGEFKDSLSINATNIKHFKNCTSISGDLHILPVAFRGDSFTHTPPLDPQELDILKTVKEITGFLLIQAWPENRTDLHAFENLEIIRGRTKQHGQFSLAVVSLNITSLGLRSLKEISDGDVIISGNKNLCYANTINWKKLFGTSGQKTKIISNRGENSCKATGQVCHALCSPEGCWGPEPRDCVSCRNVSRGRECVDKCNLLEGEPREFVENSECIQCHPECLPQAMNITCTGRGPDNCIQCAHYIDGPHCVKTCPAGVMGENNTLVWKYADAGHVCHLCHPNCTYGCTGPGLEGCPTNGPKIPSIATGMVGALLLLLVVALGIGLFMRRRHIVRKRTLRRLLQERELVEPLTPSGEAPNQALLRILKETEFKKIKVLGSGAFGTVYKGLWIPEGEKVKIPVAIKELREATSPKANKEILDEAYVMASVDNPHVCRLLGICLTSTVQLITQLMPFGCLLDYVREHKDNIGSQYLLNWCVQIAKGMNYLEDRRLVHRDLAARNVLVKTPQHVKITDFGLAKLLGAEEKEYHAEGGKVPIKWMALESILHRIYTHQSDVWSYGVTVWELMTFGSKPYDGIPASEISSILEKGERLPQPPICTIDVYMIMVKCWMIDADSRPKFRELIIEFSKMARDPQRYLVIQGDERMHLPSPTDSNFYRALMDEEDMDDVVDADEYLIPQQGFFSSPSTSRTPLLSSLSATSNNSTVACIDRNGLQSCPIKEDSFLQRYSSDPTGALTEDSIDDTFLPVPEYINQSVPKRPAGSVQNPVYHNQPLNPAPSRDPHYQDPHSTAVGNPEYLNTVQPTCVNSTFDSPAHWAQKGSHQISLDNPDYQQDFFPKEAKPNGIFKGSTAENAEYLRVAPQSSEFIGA

For `CCOc1cc(C=C2C(=O)Nc3c(Br)cc(Br)c(C)c32)ccc1O` [10720/H09], the “Biochem EGFR % Inhibition (P.167)” value at EGFR is reported as −66.8%.
`CCc1ccc(C=C2C(=O)Nc3ccc(CCCl)cc32)cc1` [10736/G09]: the “Biochem EGFR % Inhibition (P.167)” value on EGFR (protocol P.167) is recorded as 12.4%. Also, the “PDGF Kinase % Inhibition (P.119)” value in the experiment on PDGF-R (protocol P.119) was −3.5%.
Consider `O=C1Nc2ccc(CCCl)cc2C1=Cc1ccc(Cl)cc1` [10736/G02], for which the “Biochem EGFR % Inhibition (P.167)” value at EGFR is −4.5%. The “PDGF Kinase % Inhibition (P.119)” value in the experiment with PDGF-R was −5.2%.
For the compound `Cc1c(Br)cc(Br)c2c1C(=Cc1cccn1C)C(=O)N2` [10717/H04], on EGFR, the “Biochem EGFR % Inhibition (P.167)” value turned out to be 6.8%.
As for `Cc1ccc(C=C2C(=O)Nc3c(Br)cc(Br)c(C)c32)cc1` [10736/H05], the “Biochem EGFR % Inhibition (P.167)” value on EGFR (protocol P.167) is −28.9%. The “PDGF Kinase % Inhibition (P.119)” value in the experiment with PDGF-R (protocol P.119) is −10.0%.
For the compound `Cc1c(Br)cc(Br)c2c1C(=Cc1cc3ccccc3o1)C(=O)N2` [10724/H07], at EGFR, the “Biochem EGFR % Inhibition (P.167)” value was −19.3%. Moreover, the “PDGF Kinase % Inhibition (P.119)” value in the experiment with PDGF-R is reported as −39.6%.
The like results for `Cc1c(Br)cc(Br)c2c1C(=Cc1ccc([N+](=O)[O-])c(O)c1)C(=O)N2` [10724/H04] were, in that order, 14.0% and −13.1%.
For `Cc1c(Br)cc(Br)c2c1C(=Cc1ccc(O)cc1O)C(=O)N2` [10723/H08], on EGFR, the “Biochem EGFR % Inhibition (P.167)” value is reported as 69.9%. Also, the “PDGF Kinase % Inhibition (P.119)” value with PDGF-R is reported as 4.1%.
Take `Cc1c(Br)cc(Br)c2c1C(=Cc1cc(C(C)(C)C)c(O)c(C(C)(C)C)c1)C(=O)N2` [10721/H11]: at EGFR, the “Biochem EGFR % Inhibition (P.167)” value was −21.3%.
For the compound `Cc1ccc(C=C2C(=O)Nc3c(Br)cc(Br)c(C)c32)o1` [10725/H04], the “Biochem EGFR % Inhibition (P.167)” value at EGFR is on record as 17.2%. Further, the “PDGF Kinase % Inhibition (P.119)” value in the experiment with PDGF-R was −4.1%.
Consider `Cc1c(Br)cc(Br)c2c1C(=Cc1ncc[nH]1)C(=O)N2` [10720/H11], for which the “Biochem EGFR % Inhibition (P.167)” value on EGFR was −19.3%.
In the case of `Cc1c(Br)cc(Br)c2c1C(=Cc1csc([N+](=O)[O-])c1)C(=O)N2` [10722/H09], the “Biochem EGFR % Inhibition (P.167)” value at EGFR is −7.4%. Moreover, the “PDGF Kinase % Inhibition (P.119)” value with PDGF-R was found to be 17.5%.
Turning to `Cc1c(Br)cc(Br)c2c1C(=Cc1ccc(O)c(C(C)(C)C)c1)C(=O)N2` [10721/H09], the “Biochem EGFR % Inhibition (P.167)” value at EGFR was −10.4%.
Consider `Cc1c(Br)cc(Br)c2c1C(=Cc1cccc(Cl)c1)C(=O)N2` [10736/H06], for which the “Biochem EGFR % Inhibition (P.167)” value at EGFR (protocol P.167) was 12.6%. For the same compound, in the experiment with PDGF-R (protocol P.119), the “PDGF Kinase % Inhibition (P.119)” value amounted to 9.3%.
As to `O=C1Nc2ccc(CCCl)cc2C1=Cc1ccccc1Cl` [10736/G11], the “Biochem EGFR % Inhibition (P.167)” value at EGFR (protocol P.167) is −6.4%. Besides, in the experiment on PDGF-R (protocol P.119), the “PDGF Kinase % Inhibition (P.119)” value was −1.7%.
With `Cc1c(Br)cc(Br)c2c1C(=Cc1ccc([N+](=O)[O-])s1)C(=O)N2` [10722/H04], the “Biochem EGFR % Inhibition (P.167)” value at EGFR came out at 8.6%. Also, in the experiment with PDGF-R, the “PDGF Kinase % Inhibition (P.119)” value was −26.1%.
On to `COc1cccc(C=C2C(=O)Nc3ccc(S(=O)(=O)N4CCOCC4)cc32)c1` [10736/F10], for which the “Biochem EGFR % Inhibition (P.167)” value at EGFR is listed as −0.7%. Further, in the experiment with PDGF-R, the “PDGF Kinase % Inhibition (P.119)” value is 11.0%.
On to `O=C1Nc2ccc(CCCl)cc2C1=Cc1cccc(F)c1` [10736/G07], for which the “Biochem EGFR % Inhibition (P.167)” value at EGFR (protocol P.167) is given as −74.8%. Further, the “PDGF Kinase % Inhibition (P.119)” value in the experiment on PDGF-R (protocol P.119) is recorded as −14.8%.
Regarding `COc1cccc(C=C2C(=O)Nc3ccc(CCCl)cc32)c1` [10736/G10], the “Biochem EGFR % Inhibition (P.167)” value on EGFR (protocol P.167) is recorded as −4.5%. Besides, in the experiment on PDGF-R (protocol P.119), the “PDGF Kinase % Inhibition (P.119)” value is recorded as −7.4%.
As to `COc1cccc(C=C2C(=O)Nc3c(Br)cc(Br)c(C)c32)c1O` [10723/H03], the “Biochem EGFR % Inhibition (P.167)” value on EGFR amounted to 6.3%. Also, the “PDGF Kinase % Inhibition (P.119)” value in the experiment with PDGF-R is on record as −30.6%.
The like results for `COc1cc(O)c(C=C2C(=O)Nc3c(Br)cc(Br)c(C)c32)c(OC)c1` [10724/H08] were, in that order, −19.7% and −9.0%.
For the compound `Cc1cccc(C=C2C(=O)Nc3ccc(CCCl)cc32)c1` [10736/G04], the “Biochem EGFR % Inhibition (P.167)” value on EGFR was −35.0%. Also, the “PDGF Kinase % Inhibition (P.119)” value in the experiment on PDGF-R is on record as −8.3%.
Consider `Cc1cc(C)c(C=C2C(=O)Nc3c(Br)cc(Br)c(C)c32)[nH]1` [10721/H08], for which the “Biochem EGFR % Inhibition (P.167)” value at EGFR was −6.8%.
Turning to `Cc1c(Br)cc(Br)c2c1C(=Cc1cccc(Br)c1)C(=O)N2` [10723/H10], the “Biochem EGFR % Inhibition (P.167)” value on EGFR is −38.1%. The “PDGF Kinase % Inhibition (P.119)” value with PDGF-R is −22.3%.
Turning to `Cc1c(Br)cc(Br)c2c1C(=Cc1cc(Cl)c(O)c(C(C)(C)C)c1)C(=O)N2` [10722/H08], at EGFR, the “Biochem EGFR % Inhibition (P.167)” value is −5.7%. The “PDGF Kinase % Inhibition (P.119)” value in the experiment on PDGF-R is on record as −15.2%.
`Cc1cc(C=C2C(=O)Nc3c(Br)cc(Br)c(C)c32)cc(C)c1O` [10722/H07]: the “Biochem EGFR % Inhibition (P.167)” value at EGFR was −24.8%. The “PDGF Kinase % Inhibition (P.119)” value in the experiment on PDGF-R is on record as −16.9%.
As for `Cc1c(Br)cc(Br)c2c1C(=Cc1cc(Br)c(O)c(C(C)(C)C)c1)C(=O)N2` [10721/H10], on EGFR, the “Biochem EGFR % Inhibition (P.167)” value is reported as −3.9%.
Take `CCc1ccc(C=C2C(=O)Nc3c(Br)cc(Br)c(C)c32)o1` [10724/H10]: the “Biochem EGFR % Inhibition (P.167)” value on EGFR is on record as −25.5%. Moreover, the “PDGF Kinase % Inhibition (P.119)” value with PDGF-R is −2.7%.
As to `Cc1c(Br)cc(Br)c2c1C(=Cc1ccccc1Br)C(=O)N2` [10723/H07], on EGFR, the “Biochem EGFR % Inhibition (P.167)” value is on record as −11.3%. Besides, the “PDGF Kinase % Inhibition (P.119)” value in the experiment on PDGF-R is reported as −20.9%.
Turning to `Cc1c(Br)cc(Br)c2c1C(=Cc1ccc(Cl)s1)C(=O)N2` [10721/H07], the “Biochem EGFR % Inhibition (P.167)” value at EGFR is on record as −20.5%.
As to `Cc1c(Br)cc(Br)c2c1C(=Cc1ccccc1)C(=O)N2` [10720/H06], the “Biochem EGFR % Inhibition (P.167)” value at EGFR was −52.4%.
Turning to `CC(=O)Oc1ccc(C=C2C(=O)Nc3c(Br)cc(Br)c(C)c32)cc1OC(C)=O` [10723/H05], at EGFR, the “Biochem EGFR % Inhibition (P.167)” value was −17.3%. In the experiment with PDGF-R, the “PDGF Kinase % Inhibition (P.119)” value is listed as −12.6%.
On to `Cc1c(Br)cc(Br)c2c1C(=Cc1cc3c([nH]1)CCCC3)C(=O)N2` [10721/H05], for which the “Biochem EGFR % Inhibition (P.167)” value on EGFR was −12.4%.
Same read-out and setting: with `CSc1ccc(C=C2C(=O)Nc3c(Br)cc(Br)c(C)c32)s1` [10720/H07] the figure was −49.8%.
Still for that read-out and setting: with `Cc1c(Br)cc(Br)c2c1C(=Cc1cc([N+](=O)[O-])cc(CCl)c1O)C(=O)N2` [10721/H06] the figure was 43.3%.
Still for that read-out and setting: the figure for `Cc1c(Br)cc(Br)c2c1C(=Cc1nn(C)cc1Cl)C(=O)N2` [10721/H03] is 29.2%; for `Cc1c(Br)cc(Br)c2c1C(=Cc1cccs1)C(=O)N2` [10717/H03] it is 25.7%.
In the case of `Cc1c(Br)cc(Br)c2c1C(=Cc1nc3ccccc3n1C)C(=O)N2` [10721/H02], at EGFR, the “Biochem EGFR % Inhibition (P.167)” value is 20.1%.
In the case of `CCOc1ccccc1C=C1C(=O)Nc2c(Br)cc(Br)c(C)c21` [10717/H02], the “Biochem EGFR % Inhibition (P.167)” value on EGFR is reported as 3.5%.
As for `Cc1c(Br)cc(Br)c2c1C(=Cc1ccccc1O)C(=O)N2` [10720/H05], the “Biochem EGFR % Inhibition (P.167)” value at EGFR is −29.0%.
Still for that read-out and setting: the figure for `Cc1cc(O)cc(O)c1C=C1C(=O)Nc2c(Br)cc(Br)c(C)c21` [10720/H08] is −55.8%; for `COc1ccc(C=C2C(=O)Nc3c(Br)cc(Br)c(C)c32)cc1OC` [10720/H04] it is −49.6%.
Still for that read-out and setting: with `Cc1cc(C=C2C(=O)Nc3c(Br)cc(Br)c(C)c32)sc1C` [10721/H04] the figure was −8.5%; with `COc1ccc(O)c(C=C2C(=O)Nc3c(Br)cc(Br)c(C)c32)c1` [10720/H10], −62.8%.
